By pEC50 is commonly meant −log10 of the EC50, conventionally taken in molar units.

We go through 41 molecules from patent US20260042769A1, “TRIARYL AGONISTS OF ALPHA-2 ADRENERGIC RECEPTORS” (ALCEPTOR THERAPEUTICS, INC., priority 2023, published 2026).

In the assay the target is T1, human ADRA2B receptor (Homo sapiens, UniProt P18089).
T1 construct: expressed in transfected cells
T1 sequence (P18089 1-450): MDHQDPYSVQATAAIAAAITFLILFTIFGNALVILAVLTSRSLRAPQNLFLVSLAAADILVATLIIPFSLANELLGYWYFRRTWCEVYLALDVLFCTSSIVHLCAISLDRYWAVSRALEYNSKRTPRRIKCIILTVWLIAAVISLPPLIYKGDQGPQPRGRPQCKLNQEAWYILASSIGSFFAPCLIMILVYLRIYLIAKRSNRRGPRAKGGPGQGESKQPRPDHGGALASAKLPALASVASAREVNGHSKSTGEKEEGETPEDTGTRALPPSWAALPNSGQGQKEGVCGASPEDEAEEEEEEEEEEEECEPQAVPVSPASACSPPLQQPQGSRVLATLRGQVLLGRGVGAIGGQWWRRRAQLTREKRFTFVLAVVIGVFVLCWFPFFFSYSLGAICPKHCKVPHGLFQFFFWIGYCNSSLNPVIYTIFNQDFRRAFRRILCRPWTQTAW
The experiment in a line: ADRA2B arrestin agonist assay. It counts as cell-based. Conditions: CHO-K1 cells stably expressing human ADRA2B; read-out: Beta-Arrestin - Human Alpha2B EC50. The procedure, abridged:
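CHO-K1 cells stably expressing human ADRA2B, thawed from frozen stock and plated overnight, were treated with agonist for 2 h at 37 °C. Arrestin recruitment detected by luminescence after 2 h with detection reagents at room temperature.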

pEC50: −log10 of the molar value.

With `Cn1nccc1CC(c1c[nH]cn1)c1cccc2ccn(C)c12` (centres unmarked) [Compound 267, 5-[2-(4-imidazolyl)-2-(1-methyl-7-indolyl)ethyl]-1-methylpyrazole], the pEC50 is 6.30 to 7.30.

For `Cc1ncncc1CC(c1c[nH]cn1)c1cccc2c1OCC2` (centres unmarked) [Compound 268, 5-[2-(2,3-dihydro-1-benzofuran-7-yl)-2-(4-imidazolyl)ethyl]-4-methylpyrimidine], the pEC50 is 6.30 to 7.30.

With `Cn1nccc1CC(c1c[nH]cn1)c1cccc2c1cnn2C` (centres unmarked) [Compound 269, 4-[1-(4-imidazolyl)-2-(1-methyl-5-pyrazolyl)ethyl]-1-methyl-1H-indazole], the pEC50 was 6.30 to 7.30.

As for `CNc1ccc(CC(c2c[nH]cn2)c2cccc(C)c2C)cn1` (centres unmarked) [Compound 270, N-methyl{5-[2-(4-imidazolyl)-2-(2,3-xylyl)ethyl]-2-pyridyl}amine], the pEC50 is greater than 8.00.

As for `COc1ccc(CC(c2c[nH]cn2)c2cccc(C)c2C)cn1` (centres unmarked) [Compound 273, 4-[2-(6-methoxy-3-pyridyl)-1-(2,3-xylyl)ethyl]imidazole], the pEC50 was greater than 8.00.

As to `COc1cc(CC(c2c[nH]cn2)c2cccc(C)c2C)ccn1` (centres unmarked) [Compound 274, 4-[2-(2-methoxy-4-pyridyl)-1-(2,3-xylyl)ethyl]imidazole], the negative logarithm of the EC50 (pEC50) is greater than 8.00.

As for `COc1ncncc1CC(c1c[nH]cn1)c1cccc(C)c1C` (centres unmarked) [Compound 275, 5-[2-(4-imidazolyl)-2-(2,3-xylyl)ethyl]-4-methoxypyrimidine], the pEC50 was 7.30 to 8.00.

For the molecule `COc1c(C)cccc1C(Cc1cc(C)ncn1)c1c[nH]cn1` (centres unmarked) [Compound 276, 4-[2-(4-imidazolyl)-2-(2-methoxy-3-tolyl)ethyl]-6-methylpyrimidine], the negative logarithm of the EC50 (pEC50) was 6.30 to 7.30.

Regarding `COCn1ccc(C[C@H](c2c[nH]cn2)c2cccc(C)c2C)n1` [Compound 278, 3-[(S)-2-(4-imidazolyl)-2-(2,3-xylyl)ethyl]-1-(methoxymethyl)pyrazole], the negative logarithm of the EC50 (pEC50) was greater than 8.00.

For `Cc1cccc([C@H](Cc2ccn(C(F)F)n2)c2c[nH]cn2)c1C` [Compound 280, 3-[(S)-2-(4-imidazolyl)-2-(2,3-xylyl)ethyl]-1-(difluoromethyl)pyrazole], the pEC50 was greater than 8.00.

Consider `Cc1cccc([C@H](Cc2ccnn2C(F)F)c2c[nH]cn2)c1C` [Compound 281, 5-[(S)-2-(4-imidazolyl)-2-(2,3-xylyl)ethyl]-1-(difluoromethyl)pyrazole], for which the pEC50 is greater than 8.00.

Take `Cc1cccc([C@@H](Cc2ccn(C(F)F)n2)c2c[nH]cn2)c1C` [Compound 282, 3-[(R)-2-(4-imidazolyl)-2-(2,3-xylyl)ethyl]-1-(difluoromethyl)pyrazole]: the pEC50 is less than 6.30.

`Cc1cccc(C(Cc2cnc3[nH]ccc3c2)c2c[nH]cn2)c1C` (centres unmarked) [Compound 283, 4-[2-(1H-1,7-diazainden-5-yl)-1-(2,3-xylyl)ethyl]imidazole]: the pEC50 was greater than 8.00.

With `Cc1cccc(CC(c2c[nH]cn2)c2cccc3ccn(C)c23)n1` (centres unmarked) [Compound 284, 4-[1-(1-methyl-7-indolyl)-2-(6-methyl-2-pyridyl)ethyl]imidazole], the pEC50 was 7.30 to 8.00.

Turning to `Cc1cccc(C(Cc2cnc3cnccn23)c2c[nH]cn2)c1C` (centres unmarked) [Compound 285, 3-[2-(4-imidazolyl)-2-(2,3-xylyl)ethyl]-1,3a,6-triazaindene], the pEC50 is 7.30 to 8.00.

Regarding `Cc1cccc(C(Cc2ncnc3[nH]ccc23)c2c[nH]cn2)c1C` (centres unmarked) [Compound 286, 4-[2-(4-imidazolyl)-2-(2,3-xylyl)ethyl]-1H-1,5,7-triazaindene], the pEC50 is greater than 8.00.

Consider `Cc1cccc(C(Cc2cnc3n[nH]cc3c2)c2c[nH]cn2)c1C` (centres unmarked) [Compound 287, 5-[2-(4-imidazolyl)-2-(2,3-xylyl)ethyl]-2H-1,2,7-triazaindene-formic acid (1/1)], for which the pEC50 is greater than 8.00.

Regarding `Cc1cccc(C(Cc2ccc(C(N)=O)nc2)c2c[nH]cn2)c1C` (centres unmarked) [Compound 288, 5-[2-(4-imidazolyl)-2-(2,3-xylyl)ethyl]-2-pyridinecarboxamide], the pEC50 is greater than 8.00.

`Cc1cccc(C(Cc2ccnc(C(C)C)n2)c2c[nH]cn2)c1C` (centres unmarked) [Compound 291, 4-[2-(4-imidazolyl)-2-(2,3-xylyl)ethyl]-2-isopropylpyrimidine]: the pEC50 is greater than 8.00.

`Cc1cccc(C(Cc2ccc(N(C)C)nc2)c2c[nH]cn2)c1C` (centres unmarked) [Compound 292, N,N-dimethyl{5-[2-(4-imidazolyl)-2-(2,3-xylyl)ethyl]-2-pyridyl}amine]: the negative logarithm of the EC50 (pEC50) is greater than 8.00.

In the case of `CCOc1ccc(CC(c2c[nH]cn2)c2cccc(C)c2C)cn1` (centres unmarked) [Compound 293, 4-[2-(6-ethoxy-3-pyridyl)-1-(2,3-xylyl)ethyl]imidazole], the negative logarithm of the EC50 (pEC50) is 7.30 to 8.00.

For the molecule `COCc1cccc(CC(c2c[nH]cn2)c2cccc(C)c2C)n1` (centres unmarked) [Compound 294, 4-{2-[6-(methoxymethyl)-2-pyridyl]-1-(2,3-xylyl)ethyl}imidazole], the pEC50 was greater than 8.00.

With `COCc1cc(CC(c2c[nH]cn2)c2cccc(C)c2C)ccn1` (centres unmarked) [Compound 295, 4-{2-[2-(methoxymethyl)-4-pyridyl]-1-(2,3-xylyl)ethyl}imidazole], the pEC50 was greater than 8.00.

For the molecule `Cc1cccc([C@H](Cc2ccn(C3COC3)n2)c2c[nH]cn2)c1C` [Compound 296, 3-[(S)-2-(4-imidazolyl)-2-(2,3-xylyl)ethyl]-1-(3-oxetanyl)pyrazole], the negative-log EC50 (pEC50) was 7.30 to 8.00.

For the molecule `CC(C)n1cc(C[C@@H](c2c[nH]cn2)c2cccc3c2OCC3)cn1` [Compound 297, 4-[(R)-2-(2,3-dihydro-1-benzofuran-7-yl)-2-(4-imidazolyl)ethyl] 1-isopropylpyrazole], the pEC50 is less than 6.30.

Regarding `CC(C)n1cc(C[C@H](c2c[nH]cn2)c2cccc3c2OCC3)cn1` [Compound 298, 4-[(S)-2-(2,3-dihydro-1-benzofuran-7-yl)-2-(4-imidazolyl)ethyl]-1-isopropylpyrazole], the pEC50 is greater than 8.00.

With `Cn1nccc1CC(c1c[nH]cn1)c1cccc2c1OCCCO2` (centres unmarked) [Compound 299, 5-[2-(3,4-dihydro-2H-1,5-benzodioxepin-6-yl)-2-(4-imidazolyl)ethyl]-1-], the pEC50 is less than 6.30.

In the case of `c1cc2c(c(C(Cc3ccc4nccn4c3)c3c[nH]cn3)c1)OCC2` (centres unmarked) [Compound 300], the pEC50 was greater than 8.00.

Regarding `Cn1ncc2c(C(Cc3cccc(CO)n3)c3c[nH]cn3)cccc21` (centres unmarked) [Compound 301, {6-[2-(4-imidazolyl)-2-(1-methyl-1H-indazol-4-yl)ethyl]-2-pyridyl}methanol], the pEC50 was 7.30 to 8.00.

With `CNC(=O)c1ccc(CC(c2c[nH]cn2)c2cccc(C)c2C)cn1` (centres unmarked) [Compound 302, N-methyl-5-[2-(4-imidazolyl)-2-(2,3-xylyl)ethyl]-2-pyridinecarboxamide], the pEC50 was greater than 8.00.

In the case of `Cn1ncc2c(C(Cc3cccc(CF)n3)c3c[nH]cn3)cccc21` (centres unmarked) [Compound 303, 4-{2-[6-(fluoromethyl)-2-pyridyl]-1-(4-imidazolyl)ethyl}-1-methyl-1H-indazole], the negative logarithm of the EC50 (pEC50) is 7.30 to 8.00.

Consider `Cc1cccc([C@@H](Cc2cccc(C(C)(C)O)n2)c2c[nH]cn2)c1C` [Compound 304, 2-{6-[(R)-2-(4-imidazolyl) 2-(2,3-xylyl)ethyl]-2-pyridyl}-2-propanol], for which the pEC50 was greater than 8.00.

Take `Cc1cccc([C@H](Cc2cccc(C(C)(C)O)n2)c2c[nH]cn2)c1C` [Compound 305, 2-{6-[(S)-2-(4-imidazolyl) 2-(2,3-xylyl)ethyl]-2-pyridyl}-2-propanol]: the negative logarithm of the EC50 (pEC50) was less than 6.30.

`COCc1nccc(CC(c2c[nH]cn2)c2cccc3c2OCC3)n1` (centres unmarked) [Compound 306, 4-[2-(2,3-dihydro-1-benzofuran-7-yl)-2-(4-imidazolyl)ethyl]-2-(methoxymethyl)pyrimidine]: the pEC50 is greater than 8.00.

Take `COc1cc(CC(c2c[nH]cn2)c2cccc(C)c2C)nc(OC)n1` (centres unmarked) [Compound 307, 4-[2-(4-imidazolyl)-2-(2,3-xylyl)ethyl]-2,6-dimethoxypyrimidine]: the pEC50 is greater than 8.00.

Turning to `Cn1nc2ccccc2c1CC(c1c[nH]cn1)c1cccc2c1OCC2` (centres unmarked) [Compound 308, 3-[2-(2,3-dihydro-1-benzofuran-7-yl)-2-(4-imidazolyl)ethyl]-2-methyl-2H-indazole], the pEC50 is 7.30 to 8.00.

As to `Cc1cccc(C(Cc2ccc(C(=O)N(C)C)nc2)c2c[nH]cn2)c1C` (centres unmarked) [Compound 311, N,N-dimethyl-5-[2-(4-imidazolyl)-2-(2,3-xylyl)ethyl]-2-pyridinecarboxamide], the pEC50 was greater than 8.00.

As for `COc1nc(CC(c2c[nH]cn2)c2cccc3c2OCC3)ccc1F` (centres unmarked) [Compound 313, 4-[1-(2,3-dihydro-1-benzofuran-7-yl)-2-(5-fluoro-6-methoxy-2-pyridyl)ethyl]imidazole], the pEC50 was greater than 8.00.

As for `COc1cc(CC(c2c[nH]cn2)c2cccc3c2OCC3)ccn1` (centres unmarked) [Compound 314, 4-[1-(2,3-dihydro-1-benzofuran-7-yl)-2-(2-methoxy-4-pyridyl)ethyl]imidazole], the pEC50 is greater than 8.00.

As for `Cc1cc(CC(c2c[nH]cn2)c2cccc(C)c2C)c(F)cn1` (centres unmarked) [Compound 315, 4-[2-(5-fluoro-2-methyl-4-pyridyl)-1-(2,3-xylyl)ethyl]imidazole], the pEC50 was greater than 8.00.

In the case of `Cc1cc(CC(c2c[nH]cn2)c2cccc(C)c2C)nc(C)n1` (centres unmarked) [Compound 316, 4-[2-(4-imidazolyl)-2-(2,3-xylyl)ethyl]-2,6-dimethylpyrimidine], the negative logarithm of the EC50 (pEC50) is greater than 8.00.
